Reference: ChEMBL document CHEMBL1201862, “PubChem BioAssay data set” (2004)
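Briefly, cells in 96-well plates were exposed to five compound concentrations for 48 h, and endpoints were estimated by linear interpolation. Here, GI50 denotes the concentration required for 50% inhibition of growth.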 Calls of active or inactive are those of the source. Cut-off read from the data, not from the text of the source: active = GI50 up to about 1.1 µM and inactive = higher.

What was measured:
Assay in all cases: DTP human tumour cell line panel, 48 h
EKVX = test system: EKVX
NCI-H522 = test system: NCI-H522
UACC-62 = test system: UACC-62
MOLT-4 = test system: MOLT-4
SK-MEL-28 = test system: SK-MEL-28
OVCAR-8 = test system: OVCAR-8
U-251 = test system: U-251
SNB-75 = test system: SNB-75
DU-145 = test system: DU-145
K562 = test system: K562
HCT-15 = test system: HCT-15
MDA-N = test system: MDA-N
COLO 205 = test system: COLO 205
HOP-62 = test system: HOP-62
HT-29 = test system: HT-29
CAKI-1 = test system: CAKI-1
HOP-92 = test system: HOP-92
BT-549 = test system: BT-549

Row | SMILES | GI50 (EKVX) | GI50 (NCI-H522) | GI50 (UACC-62) | GI50 (MOLT-4) | GI50 (SK-MEL-28) | GI50 (OVCAR-8) | GI50 (U-251) | GI50 (SNB-75) | GI50 (DU-145) | GI50 (K562) | GI50 (HCT-15) [µM] | GI50 (MDA-N) | GI50 (COLO 205) | GI50 (HOP-62) | GI50 (HT-29) | GI50 (CAKI-1) | GI50 (HOP-92) | GI50 (BT-549)
1 | COc1cc(/C=C2\C(=O)N(c3ccc(NC(C)=O)cc3)C(c3ccccc3)S2(=O)=O)cc(OC)c1OC (configuration not stated) | 91.4 µM (inactive) | > 100 µM (inactive) | > 100 µM (inactive) | 25.1 µM (inactive) | > 100 µM (inactive) | > 100 µM (inactive) | > 100 µM (inactive) | 43.6 µM (inactive) | > 100 µM (inactive) | 39.9 µM (inactive) | > 100 | 79.6 µM (inactive) | > 100 µM (inactive) | > 100 µM (inactive) | > 100 µM (inactive) | > 100 µM (inactive) | > 100 µM (inactive) | > 100 µM (inactive)
2 | CCCNCC(O)CNc1ccc(NCC(O)CNCCC)c2c1C(=O)c1ccccc1C2=O (configuration not stated) | 7.73 µM (inactive) | 1.21 µM (inactive) | 1.9 µM (inactive) | 1.26 µM (inactive) | 2.96 µM (inactive) | 2.26 µM (inactive) | 2.57 µM (inactive) | 2.29 µM (inactive) | 6.22 µM (inactive) | 2.14 µM (inactive) | 43.9 | 2.74 µM (inactive) | 2.31 µM (inactive) | 1.82 µM (inactive) | 2.17 µM (inactive) | 12.6 µM (inactive) | 2.07 µM (inactive) | 2.14 µM (inactive)
3 | COc1ccc(-c2cn3c(n2)sc2cc(C)ccc23)cc1 | 4.73 µM (inactive) | 5.55 µM (inactive) | 12.3 µM (inactive) | 17.5 µM (inactive) | 38.3 µM (inactive) | 8.17 µM (inactive) | 4.13 µM (inactive) | 17.4 µM (inactive) | 23.2 µM (inactive) | 3.64 µM (inactive) | 38.5 | 5.08 µM (inactive) | 5.51 µM (inactive) | 20.2 µM (inactive) | 5.96 µM (inactive) | 57.5 µM (inactive) | 2.86 µM (inactive) | 12.1 µM (inactive)
4 | COc1ccc2c(Cl)cc(NC(=S)Nc3ccccc3)nc2c1 | 22 µM (inactive) | 13.2 µM (inactive) | 17.2 µM (inactive) | 25.2 µM (inactive) | 33.6 µM (inactive) | 19.4 µM (inactive) | 20 µM (inactive) | 23.6 µM (inactive) | 35.7 µM (inactive) | 23.4 µM (inactive) | 27.9 | 15.4 µM (inactive) | 31.2 µM (inactive) | 35.5 µM (inactive) | 22.4 µM (inactive) | 35.6 µM (inactive) | 21.8 µM (inactive) | 39 µM (inactive)
